Several values for one entry are separate records, joined by “and”; a condition that tells them apart may be missing. Equal values may be shown once.
Experiments:
hESC-CMs = conditions: 2 μM clotrimazole, current clamp; cited from earlier work
WT mice = assay: In vivo telemetric ECG recording in WT (normal) mice; design: species or system mouse; conditions: 20 mg/kg IP
From the text: (§1) Telemetric ambulatory long-term ECG recordings, analogous to Holter monitoring in humans, were obtained with implantable transmitters. […] An implantable 3.5 grams wireless radiofrequency transmitter (DSI MM USA, device weight 3.8 grams) was aseptically inserted into a subcutaneous tissue pocket in the back as described in Katz, G., et al. Heart Rhythm 7, 1676-1682 (2010) and Kurtzwald-Josefson, E., et al. Heart Rhythm 11, 1471-1479 (2014)]. Animals were allowed to recover after surgery for at least 24 hours before any experiments. Baseline electrocardiograms (ECG) were obtained 15 minutes after IP injection of the appropriate vehicle (peanut oil or peanut oil supplemented with ethanol 1%). […] Telemetered ECG tracings were obtained in conscious mice at rest for one minute and during peak exercise (i.e. the first minute of recovery). In the treadmill exercise, mice were forced to exercise on a rodent treadmill; gradually increasing the speed up to a maximum of 15 m/minute. Ventricular tachycardia (VT) was defined as four or more consecutive ventricular beats. If this phenotype was consecutively observed for more than 15 seconds, it was defined as “sustained” ventricular tachycardia (SVT). Shorter VTs were characterized as “non-sustained” (NSVT). All other ventricular arrhythmias, such as premature beats, ventricular bigeminy, couplets and triplets were all defined as ventricular premature contractions (VPCs).
(§2) For this, a heart telemetry device was implanted in norma mice for continuous ECG recording at rest and during treadmill exercise. For each session, continuous ECG recording was performed with the same animals receiving first intraperitoneal (IP) injection of vehicle (peanut oil) and then 20 mg/kg clotrimazole.
as §2, with “A” for “For this, a”, “WT, CASQ2-D307H KI and CASQ2 KO” for “norma”, “the SK4 channel blocker.” for “20 mg/kg clotrimazole.”

SK4 current = biological target: T1, SK4 current (Homo sapiens, UniProt O15554); conditions: 2 μM clotrimazole added to solution 1; voltage ramp −90 to +40 mV; cited from earlier work
T1 construct: electrophysiological characterization of the SK4 current in a single cardiac hESC-CM; endogenous in cells; host or cells: hESC-CMs (human embryonic stem cell-derived cardiomyocytes)
T1 sequence (O15554 whole entry): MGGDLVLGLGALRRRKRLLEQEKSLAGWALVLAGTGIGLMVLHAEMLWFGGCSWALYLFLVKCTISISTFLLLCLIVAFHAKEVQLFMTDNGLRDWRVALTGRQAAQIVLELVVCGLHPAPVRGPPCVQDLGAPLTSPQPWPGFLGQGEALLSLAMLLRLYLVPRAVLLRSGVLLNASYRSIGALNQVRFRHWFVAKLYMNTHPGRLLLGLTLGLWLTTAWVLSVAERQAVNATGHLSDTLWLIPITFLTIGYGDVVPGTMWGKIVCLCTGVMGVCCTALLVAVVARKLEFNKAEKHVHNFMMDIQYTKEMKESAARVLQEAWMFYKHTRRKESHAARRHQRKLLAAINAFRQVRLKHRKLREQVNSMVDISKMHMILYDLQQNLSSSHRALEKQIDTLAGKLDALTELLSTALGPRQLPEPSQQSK

CASQ2-D307H KI mice = assay: In vivo telemetric ECG recording in CASQ2-D307H KI mice; design: species or system mouse; conditions: 20 mg/kg IP; for number of mice, most severe ECG form: NSVT / number of mice, most severe ECG form: Normal (sinusal rhythm) / number of mice, most severe ECG form: SVT / number of mice, most severe ECG form: VPC: n=5 Clotrimazole, n=12 TRAM-34
From the text: as §1
as §2, with “A” for “For this, a”, “WT, CASQ2-D307H KI and CASQ2 KO” for “norma”, “the SK4 channel blocker.” for “20 mg/kg clotrimazole.”
(§3) The types of arrhythmic features were classified following their seriousness: sinusal rhythm (normal), ventricular premature contractions (VPC), non-sustained ventricular tachycardia (NSVT) and sustained ventricular tachycardia (SVT). For each mouse was considered the most severe form of arrhythmia recorded under ECG.

CASQ2 KO mice = assay: In vivo telemetric ECG recording in CASQ2 KO mice; design: species or system mouse; conditions: 20 mg/kg IP; for number of mice, most severe ECG form: NSVT / number of mice, most severe ECG form: Normal (sinusal rhythm) / number of mice, most severe ECG form: SVT / number of mice, most severe ECG form: VPC: n=6
From the text: as §1
as §2, with “A” for “For this, a”, “WT, CASQ2-D307H KI and CASQ2 KO” for “norma”, “the SK4 channel blocker.” for “20 mg/kg clotrimazole.”
as §3

SAN cells = assay: Spontaneous APs / pacing rate of isolated SAN cells from WT mice (patch clamp); format: cell-based, mouse
Method: (§4) WT and CASQ2 D307H KI mice were anesthetized with isofluorane and sacrificed by cervical dislocation. The heart was rapidly removed and transferred into Tyrode solution containing heparin. […] The area was cleaned, cut into small strips and washed into a Low Calcium Solution, containing (in mM): 140 NaCl, 5.4 KCl, 0.5 MgCl2, 1.2 KH2PO4, 5 HEPES-NaOH, 50 taurine, 5.5 glucose (pH 6.9). The osmolarity was adjusted if needed to 315 mOsm.
The same solution, supplemented with 1 mg/ml albumin, 200 μM CaCl2, collagenase Type I (Worthington) or liberase TH (Roche), protease (Sigma) and elastase (Sigma) was used for enzymatic digestion as previously described [See, Mesirca, P., et al. Nat Commun 5, 4664 (2014)]. In this step, the tissue was gently resuspended with a polished Pasteur pipette in this solution for 9-13 minutes at 37° C. SAN samples were then washed three times in a modified “Kraftbrühe” solution, containing (in mM): 70 glutamic acid, 80 KOH, 20 KCl, 10 γ-Hydroxybutyric acid sodium salt, 10 KH2PO4, 10 HEPES-KOH, 10 taurine, 1 mg/ml albumin, 0.1 EGTA-KOH (pH 7.2). The same solution was used to re-suspend the single cells with a pipet by vigorous up and down, between 3 to 5 minutes at 37° C. Cells were then gradually exposed to increasing concentrations of calcium, following a “Ca^2+ readaptation” protocol [Mesirca et al., 2014, supra]. Experiments were performed the same day at 33° C.
(§5) In all experiments, the coverslips were perfused at 33° C. with an external solution containing (in mM): 140 NaCl, 4 KCl, 11 Glucose, 1.2 MgCl2, 1.8 CaCl2, 5.5 HEPES titrated to pH 7.4 with NaOH and adjusted at 320 mOsm with sucrose.
The spontaneous automaticity of isolated SAN cells was recorded under perforated-patch conditions by adding 30 μM β-escin49 to the intracellular solution containing (in mM): 130 KCl, 10 NaCl, 10 HEPES, 0.2 EGTA-KOH, 2 MgATP, 6.6 Phosphocreatine, 0.05 cAMP and 1 μM free Ca^2+ (pH 7.2). To record SK4 K+ current, a voltage ramp protocol was applied. SAN and hiPS-CMs were held at −40 mV and −20 mV, respectively to substantially inactivate voltage-gated Na^+ and Ca^2+ currents. Cells were stepped from −90 mV to +60 mV for 150 ms. Then, a cocktail (solution 1) containing (in mM) 0.3 cadmium, 0.025 ZD-7288 and 0.01 E-4031 was applied extracellularly to inhibit residual L-type and T-type voltage-gated Ca2+ currents, If and the IKr currents, respectively. […] For voltage-clamp recording of SAN cells, the intracellular solution was the same to that described above for recording spontaneous automaticity.
The spontaneous electric activity of the cell was recorded in the current clamp configuration of the patch clamp technique before (black trace) and during (violet trace) exposure to 2 μM clotrimazole.
FIG. 5E (Left) presents representative traces of spontaneous APs recorded in single SAN cell from WT mice.

[1] = system: intact SAN tissue preparations from WT mice; assay: Spontaneous calcium transients ex vivo in intact SAN tissue from WT mice (Fluo-4 AM); format: cell-based, mouse; conditions: 100 nM isoproterenol
Method: (§6) SAN tissue preparations were dissected ex vivo from WT and CASQ2-D307H KI mice as described in Torrente, A. G., et al. Proc Natl Acad Sci USA 112, 9769-9774 (2015). The dissected whole SAN tissue was pinned on a hand-made chamber and was incubated in a Tyrode solution containing 10 μM Fluo-4 AM (Thermo Fisher Scientific) and pluronic acid for 1 hour at 37° C. in the dark. The SAN tissue was washed in Tyrode at 37° C. in the dark for 10 minutes before experiments. Fluorescence of calcium transients was recorded using a photomultiplier (PTi D-104) at 35° C. and the analog signals were digitized using Digidata 1440 (Molecular Devices) and analyzed with pCLAMP 10.5 software.
(§7) To investigate the spontaneous calcium transients of the SAN, intact SAN tissue preparations dissected ex vivo from WT and CASQ2-D307H KI mice were exposed to Fluo-4 AM as previously described [Torrente, A. G., et al. Proc Natl Acad Sci USA 112, 9769-9774 (2015)].
FIG. 6A (Left) presents representative traces of spontaneous calcium transients recorded ex vivo in intact SAN tissue preparations from WT mice. […] Right: data summary of calcium transient rate (one-way-ANOVA***P=0.0003; n=12).

normal hiPSC-CMs = assay: Spontaneous APs in hiPS-CMs derived from normal individuals; format: cell-based, human; conditions: 3 μM isoproterenol
Method: as §5
FIG. 4E (Left) presents representative traces of spontaneous APs recorded in hiPS-CM derived from a normal individual. […] FIG. 4E (Right) are bar graphs presenting data summary of pacing rate (normalized to Ctrl; one-way ANOVA **P=0.0071, n=14), DD slope (paired t-test, ***P<0.0001, n=14) and APD50 (one-way ANOVA *P=0.0243, n=18).

[2] = system: intact SAN from CASQ2 D307H KI mice; assay: Spontaneous calcium transients ex vivo in intact SAN tissue from CASQ2-D307H KI mice (Fluo-4 AM); format: cell-based, mouse; conditions: 100 nM isoproterenol
Method: as §6, §7
FIG. 6B presents representative traces of different types of calcium transient abnormalities recorded in intact SAN from CASQ2 D307H KI mice, termed as “local Ca^2+ release” (upper left), “double humped transients” (upper right), “large-stored released Ca^2+ waves” (lower left) and “calcium alternans” (lower right).
FIG. 6C presents representative trace of spontaneous calcium transients recorded from intact SAN of CASQ2 D307H KI. The baseline rate of calcium transients (control, black trace) yielded chaotic calcium transients (red trace) following incubation of the SAN with 100 nM isoproterenol.

[3] = system: SAN cells from CASQ2-D307H KI mice; assay: Spontaneous APs and DADs of isolated SAN cells from CASQ2 D307H KI mice; format: cell-based, mouse; conditions: 50 nM isoproterenol, after 1-2 minutes
Method: as §4
The same solution, supplemented with 1 mg/ml albumin, 200 μM CaCl2, collagenase Type I (Worthington) or liberase TH (Roche), protease (Sigma) and elastase (Sigma) was used for enzymatic digestion as previously described [See, Mesirca, P., et al. Nat Commun 5, 4664 (2014)]. In this step, the tissue was gently resuspended with a polished Pasteur pipette in this solution for 9-13 minutes at 37° C. SAN samples were then washed three times in a modified “Kraftbrühe” solution, containing (in mM): 70 glutamic acid, 80 KOH, 20 KCl, 10 γ-Hydroxybutyric acid sodium salt, 10 KH2PO4, 10 HEPES-KOH, 10 taurine, 1 mg/ml albumin, 0.1 EGTA-KOH (pH 7.2). […] Cells were then gradually exposed to increasing concentrations of calcium, following a “Ca^2+ readaptation” protocol [Mesirca et al., 2014, supra]. […]
FIG. 5F (Left) presents representative traces of spontaneous APs recorded in single SAN cell from CASQ2 D307H KI mice. […]

CPVT2 hiPSC-CMs = assay: Spontaneous APs and DADs in hiPS-CMs derived from CPVT2 (CASQ2 D307H) patients; format: cell-based, human; conditions: 3 μM isoproterenol
Method: as §5
FIG. 4F (Left) presents representative traces of spontaneous APs recorded in hiPS-CM derived from a CPVT2 (CASQ2 D307H) patients. From a regular pacing (black trace), DADs appeared when the cell was exposed to 3 μM isoproterenol (red trace, arrows). […] The suppression of cell 540 automaticity was reversible upon washout (blue trace). FIG. 4F (Right) present bar graphs showing data summary of pacing rate (n=17), on APD50 (n=17) and DADs (Normalized to Ctrl; one-way ANOVA***P=0.0001, n=15).

## Clc1ccccc1C(c1ccccc1)(c1ccccc1)n1ccnc1 [Clotrimazole]
hESC-CMs
  duration of the action potentials (APD50): did not significantly affect
  firing rate: decreased the firing rate of the cells
  membrane potential (MDP) / pacing: depolarized the membrane of the cell (MDP) until a pacing arrest
WT mice; WT mice at rest
  prolongation of the PR interval: 27%
WT mice; WT mice at rest, vs vehicle in same animal
  reduction of resting heart rate: 16.1±6.1% and 16±6%
WT mice; normal mice at rest, n=10 (vehicle 29.4±0.9)
  PR interval: 37.0 ± 3.5 ms
WT mice; normal mice at rest, n=10 (vehicle 718±16)
  resting heart rate: 604±43 bpm
WT mice; normal mice during treadmill exercise, n=10 (vehicle 724±18)
  sinus rate (heart rate): 605±42 bpm
WT mice; normal mice following treadmill exercise, n=10 (vehicle 29.27±0.94), not significant
  PR interval: 37.44 ± 4.03 ms
SK4 current
  clotrimazole-sensitive/SK4 current (linear voltage trace): decreased the linear voltage trace in both sides
CASQ2-D307H KI mice; KI mice at rest
  mice converted to normal sinus rhythm: 3 out of 5
CASQ2-D307H KI mice; KI mice, basal conditions and during treadmill exercise
  heart rate and PR interval: bradycardia and PR prolongation were noticed
CASQ2-D307H KI mice; KI at rest
  number of mice, most severe ECG form: NSVT: 0
  number of mice, most severe ECG form: Normal (sinusal rhythm): 3
  number of mice, most severe ECG form: SVT: 0
  number of mice, most severe ECG form: VPC: 2
CASQ2-D307H KI mice; KI during Exercise
  number of mice, most severe ECG form: NSVT: 2
  number of mice, most severe ECG form: Normal (sinusal rhythm): 0
  number of mice, most severe ECG form: SVT: 1
  number of mice, most severe ECG form: VPC: 2
CASQ2 KO mice; KO mice, basal conditions and during treadmill exercise
  heart rate and PR interval: bradycardia and PR prolongation were noticed
CASQ2 KO mice; KO at rest
  number of mice, most severe ECG form: NSVT: 0
  number of mice, most severe ECG form: Normal (sinusal rhythm): 4
  number of mice, most severe ECG form: SVT: 0
  number of mice, most severe ECG form: VPC: 2
CASQ2 KO mice; KO during exercise
  number of mice, most severe ECG form: NSVT: 3
  number of mice, most severe ECG form: Normal (sinusal rhythm): 0
  number of mice, most severe ECG form: SVT: 1
  number of mice, most severe ECG form: VPC: 2
SAN cells; 2 μM clotrimazole, current clamp, reversible during washout
  firing rate: strongly decreases the firing rate of the cells

## CC(C)NCC(O)c1ccc(O)c(O)c1 (centres unmarked) [Isoproterenol]
[1]
  rate of calcium transients: significantly increased
Normal hiPSC-CMs
  APD50: reduced their APD50
  firing rate: significantly increased their firing rate
[2]
  Ca2+ transient abnormalities: produced various Ca^2+ transient abnormalities
[3]
  DADs: led to DADs
CPVT2 hiPSC-CMs
  DADs: triggered DADs
  chronotropic effect: did not produce positive chronotropic effect
SAN cells; 50 nM isoproterenol
  pacing of SAN cells: significantly increased the pacing
